The values that follow come from patent US11406644B2, “Tropomyosin-related kinase (TRK) inhibitors” (Genzyme Corporation, priority 2013, dated 2022).

SMILES strings stand for the structures. Counter-ions that a name gives are not always drawn.

One data set deals with TrkA (Homo sapiens (Human), UniProt P04629). Briefly: TrkA activity, off-chip mobility shift assay (LabChip 3000). In kind it is biochemical. Conditions: 200 pM TrkA, 55 μM ATP (ATP Km). An excerpt: (§1) Reagents and consumables were purchased from Sigma Aldrich, Carna Biosciences, or Caliper Life Sciences. All assay reaction conditions for IC50 determinations were within the linear range with respect to time and enzyme concentration. […] The LabChip 3000 separates and measures the fluorescent signal of fluorescein labeled peptide substrate and fluorescein labeled peptide product present in each well. Results are expressed as percent conversion by measuring peak height for both the substrate and product and dividing the product peak height by the sum of peak heights for both substrate and product.

The target of the next data set is TrkB (Homo sapiens (Human), UniProt Q16620). Briefly: TrkB activity, off-chip mobility shift assay (LabChip 3000). Format: biochemical. The following applies: 300 pM TrkB, 70 μM ATP (ATP Km).
Source text: as §1

Data set [1] deals with Male Lewis rats with PGPS knee arthritis. As to the kind of experiment: Reactivated peptidoglycan-polysaccharide (PGPS) knee arthritis. Format: in vivo, rat. An excerpt: Male Lewis rats were acclimated to the testing facility for 7 days. The rats were housed in 5 per cage in shoe-box polycarbonate cages with wire tops, wood chip bedding and suspended food and water bottles.
On day −21, the male Lewis rats were randomized into treatment groups by body weight. The rats were anesthetized and injected with peptidoglycan-polysaccharide (PGPS) into the right knee to induce PGPS arthritis. Arthritis was reactivated on days 0 and 14 by an IV tail injection of PGPS.
The rats were weighed at baseline on days 0, 4, 14 and 18. Knee thickness was measured by caliper at baseline and on days 0, 2, 4, 14, 16 and 18. Gait analysis occurred on days 0-4 and 14-18, with video recording of selected animals on days 3 and 17. Gait analysis was performed by applying ink to the ventral surface of the foot and documenting weight bearing during movement across paper.
The animals were terminated at day 18. Right knees were removed, trimmed of extraneous tissue, and collected into 10% neutral buffered formalin. After two days in the formalin buffer and three days in 10% formic acid decalcifier, the knees were cut into two approximately equal halves in the frontal plane and processed for paraffin embedding and stained with T. Blue. Histological examinations were subsequently performed for bone resorption, inflammation, pannus and cartilage damage.
Body weights, gait deficiency and caliper measurements were analyzed using a one-way analysis of variance (1-way ANOVA) with Dunnett's multiple comparison post-test. Gait scores were analyzed using a Kruskal-Wallis test (non-parametric ANOVA) with Dunn's multiple comparison post-test. Histopathology scores were analyzed using a Kruskal-Wallis test (non-parametric ANOVA) with Dunn's multiple comparison post-test.

For data set [2], the system named is Male Wistar rats with MIA induced osteoarthritis. As to the kind of experiment: Monosodium iodoacetate (MIA) induced osteoarthritis. In kind it is in vivo, rat. The following applies: for MIA/LRS placebo group compared with treated group at day 35: p<0.05. An excerpt:
Male Wistar rats were acclimated to the testing facility for 5 days. The rats were individually housed in micro-isolator shoe-box polycarbonate cages with cob bedding and water bottles. Dry pelleted food of known composition and nutritional components was provided ad libitum
Animals were randomized by treatment type using an online random number generator. Each treatment group was assigned a number, entered into the random number generator, recorded then translated back to the associated treatment. All injections were given in the left leg unless the treatment indicated “Contralateral” in which case the injection was given in the right leg. Both legs were shaved on all animals at the time of the treatment injections to blind the test administrator.
The rats were weighed the day prior to injection with monosodium iodoacetate (MIA), the agent used to induce osteoarthritis in the animals. The day of injection, rats from groups 2-8 received a subcutaneous (SC) dose of buprenorphine at least one hour prior to induction. […] Naïve animals were then placed in recovery. All other animals received an injection of MIA. In animals receiving MIA, the hind leg was flexed and an injection of MIA (25 μL) was injected into the intra-articular space using a 27 gauge ½ Inch Needle. Standard postoperative care was performed (twice daily for 48 hours).
On Day 8 the test article was administered as described above. On Days −1, 7, 14, 21, 28, and 35 post-induction, weight bearing was assessed. A weight bearing scale was utilized using a plexiglass chamber to assess the amount of weight distributed in each hind limb. The animals were acclimated to the chamber for at least 5 minutes prior to testing and the weight distribution was recorded 5 times.
The animals were terminated at day 36. Both stifles were collected from each animal; the skin was removed from the joint and the patella was removed while leaving as much of the fat pad intact with the joint. The stifle was placed in the appropriate cassette with rolled gauze to secure the stifle in the cassette and then placed into 4% Paraformaldehyde. These samples were examined histologically.

The mark [3] stands for this setting: 0.06 mg intra-articular on day −7.

Chain of TrkB (Q16620 456-822): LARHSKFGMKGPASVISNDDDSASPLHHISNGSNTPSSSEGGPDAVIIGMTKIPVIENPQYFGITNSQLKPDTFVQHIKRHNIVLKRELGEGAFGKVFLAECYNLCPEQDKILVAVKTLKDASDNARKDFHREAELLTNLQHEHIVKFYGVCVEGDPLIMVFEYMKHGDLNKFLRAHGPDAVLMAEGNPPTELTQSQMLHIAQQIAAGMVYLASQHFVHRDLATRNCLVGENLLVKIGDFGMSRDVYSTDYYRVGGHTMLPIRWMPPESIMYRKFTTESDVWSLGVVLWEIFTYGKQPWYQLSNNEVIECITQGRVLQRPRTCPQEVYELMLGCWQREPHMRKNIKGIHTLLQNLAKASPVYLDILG
Chain of TrkA (P04629 442-796): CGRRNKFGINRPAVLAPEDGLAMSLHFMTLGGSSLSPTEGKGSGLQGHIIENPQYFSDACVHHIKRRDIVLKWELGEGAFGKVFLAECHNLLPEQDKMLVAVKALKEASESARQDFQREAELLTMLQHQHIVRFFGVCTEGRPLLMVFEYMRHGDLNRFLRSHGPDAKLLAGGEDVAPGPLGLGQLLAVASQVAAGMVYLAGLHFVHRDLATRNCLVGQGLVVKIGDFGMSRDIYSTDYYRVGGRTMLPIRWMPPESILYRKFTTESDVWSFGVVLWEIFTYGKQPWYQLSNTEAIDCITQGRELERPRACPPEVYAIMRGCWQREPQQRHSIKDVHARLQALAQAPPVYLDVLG

Take `COc1ccc(COc2ccc(Cn3cnc4cc(-c5cnn(C6CCNCC6)c5)ccc43)cc2OC)cn1` [Ex. 3-5]: the IC50 (commonly the concentration needed to halve the response being measured) came to 6 nM on TrkA and 5 nM at TrkB.
As to `COc1ccc(COc2ccc(Cn3c(N)nc4cc(-c5cnn(C)c5)cnc43)cc2OC)cc1` [Ex. 3-15, 3-(3-Methoxy-4-((4-methoxybenzyl)oxy)benzyl)-6-(1-methyl-1H-pyrazol-4-yl)-3H-imidazo[4,5-b]pyridin-2-amine], the “knee caliper AUC values” in data set [1] (1 mg intra-articular on day −7) is given as “generally unaffected”. In addition, the “reduction of gait AUC values (scores and deficiency), first reactivation” value in data set [1] (1 mg intra-articular on day −7) was 92-93%. In data set [1] (1 mg intra-articular on day −7), the “reduction of gait AUC values (scores and deficiency), second reactivation” value is 85-86%. Moreover, in data set [1] (1 mg intra-articular on day −7, day 14 (just prior to second reactivation)), the knee caliper measurements result is “significantly reduced”. For the same molecule, in data set [1] (1 mg intra-articular on day −7, days 15, 17 and 18), the “reductions in gait deficiency, second reactivation” value is listed as “significant”. For the same molecule, in data set [1] (1 mg intra-articular on day −7, throughout first reactivation), the “gait scores and deficiency, first reactivation” value is reported as “significant reductions”. In addition, the “gait scores, second reactivation” value in data set [1] (1 mg intra-articular on day −7, throughout second reactivation) was “significantly reduced”. The “efficacy (weight bearing)” value in data set [2] (10 μg Contralateral injection) was “efficacy at 3 and 4 weeks”; in data set [2] (10 μg Ipsilateral injection) it was “efficacy was observed at 2 through 4 weeks”; in data set [2] (30 μg Contralateral injection), “efficacy at only the 3 week timepoint”; in data set [2] (30 μg Ipsilateral injection), “effective throughout the four weeks following administration”; in data set [2] (100 μg Ipsilateral injection), “effective throughout the four weeks following administration”. The “MIA/LRS placebo group compared with treated group at day 35” value in data set [2] (30 μg Ipsilateral) and in data set [2] (100 μg Ipsilateral) was “significantly worse” in each case. The “systemic pain relief (weight bearing)” value in data set [2] (100 μg Contralateral injection, 1-4 weeks) is reported as “did not show systemic pain relief at any timepoint”. For the same molecule, the “body weight results, adverse observations due to treatment” value in data set [2] (intra-articular 10-100 μg on day 8) is on record as “No adverse observations”. In data set [2] (stifles collected at day 36), the “histopathology of knee joint, adverse changes” value is “no adverse changes”.
Regarding `COc1ccc(-c2cnc3c(c2)ncn3Cc2ccc(OC(C)c3ccc(OC)nc3)c(OC)c2)cn1` (centres unmarked) [Ex. 3-58-2, 3-(3-methoxy-4-(1-(6-methoxypyridin-3-yl)ethoxy)benzyl)-6-(6-methoxypyridin-3-yl)-3H-imidazo[4,5-b]pyridine formate], on TrkB, the IC50 stood at 610 nM.
Turning to `C[C@]12C=CC(=O)C=C1CC[C@H]1[C@@H]3C[C@@H](O)[C@](O)(C(=O)CO)[C@@]3(C)C[C@H](O)[C@@]12F` [Triamcinolone, reference compound], in data set [1] (setting [3]), the “reduction of gait AUC values, each reactivation calculated separately” value is given as 74-99%; the “reduction of gait AUC values, summed” value was 88-92%; the “reductions in knee caliper AUC” value is given as 53-106%.
